# According to PubChem BioAssay (NCI):
#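 Assay format: 96-well plates, 48-hour exposure. Abbreviation: GI50, concentration required for 50% inhibition of growth. The concentration for full growth arrest is given as TGI.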
# Key:
# Assay in all cases: NCI anticancer screen, dose series, 48 h
# NCI-H460 lung = tested on: NCI-H460 lung
# IGROV1 ovarian = tested on: IGROV1 ovarian
# 786-0 renal = tested on: 786-0 renal
# OVCAR-4 ovarian = tested on: OVCAR-4 ovarian
# SK-MEL-5 melanoma = tested on: SK-MEL-5 melanoma
# RPMI-8226 leukemia = tested on: RPMI-8226 leukemia
# OVCAR-8 ovarian = tested on: OVCAR-8 ovarian
# EKVX NSCLC = tested on: EKVX NSCLC
# SNB-19 CNS = tested on: SNB-19 CNS
# MDA-MB-231 breast = tested on: MDA-MB-231 breast
SMILES,TGI (NCI-H460 lung) [µM],TGI (IGROV1 ovarian) [µM],TGI (786-0 renal) [µM],TGI (OVCAR-4 ovarian) [µM],TGI (SK-MEL-5 melanoma) [µM],TGI (RPMI-8226 leukemia) [µM],TGI (OVCAR-8 ovarian) [µM],TGI (EKVX NSCLC) [µM],TGI (SNB-19 CNS) [µM],TGI (MDA-MB-231 breast) [µM],GI50 (NCI-H460 lung) [µM],GI50 (IGROV1 ovarian) [µM],GI50 (786-0 renal) [µM],GI50 (OVCAR-4 ovarian) [µM],GI50 (SK-MEL-5 melanoma) [µM],GI50 (RPMI-8226 leukemia) [µM],GI50 (OVCAR-8 ovarian) [µM],GI50 (EKVX NSCLC) [µM],GI50 (SNB-19 CNS) [µM],GI50 (MDA-MB-231 breast) [µM]
COc1cccc2c1C(=O)OC2c1cccc2ccccc12 (stereo unspecified),> 100,> 100,> 100,> 88.7,> 100,> 100,> 100,> 100,> 100,> 100,,,,,,,,,,
Cc1cc(Nc2cc(N3CCN(C)CC3)nc(Sc3ccc(NC(=O)C4CC4)cc3)n2)n[nH]1,> 10,> 10,> 10,> 10,> 10,> 10,> 10,> 10,> 10,> 10,0.537,4.82,> 10,> 10,3.19,4.02,7.54,> 10,> 10,3.98
Nc1nc(N)c2cc(Sc3cccc(C(F)(F)F)c3)ccc2n1,4.77,15.6,5.38,18.6,5.86,5.43,4.55,19.8,18.4,7.14,,,,,,,0.713,,,
O=C1c2ccccc2C(=O)c2c(NCC3CO3)ccc(NCC3CO3)c21 (stereo unspecified),> 53.9,15.9,5.57,34,6.44,33.3,2.49,> 51.5,> 39.3,14.8,,,,,,,,,,
CN(C)c1ccc(/C=c2/c3ccccc3n3c2c2cc(F)ccc2[n+]3C)cc1,26.6,> 36.7,21,34.2,6.06,3.55,16.4,20.1,44.3,34.5,4.72,5.98,4.24,15.7,2.35,0.715,3.83,4.29,10.2,13.4
Clc1ccccc1C(Nc1ncccn1)Nc1ncccn1,> 100,> 100,> 100,> 100,> 100,> 100,> 100,> 100,> 100,> 100,,,,,,,,,,
CCOC(=O)c1cnn2c3ccccc3n(S(=O)(=O)c3ccc(OC)cc3)c12,> 100,> 100,> 100,> 100,2.27,28.2,> 100,> 100,> 100,> 100,0.753,0.478,0.666,1.58,0.319,0.37,0.551,0.583,0.712,0.889
O=C(CC(=O)c1cccc(Cl)c1)c1cccc(Cl)c1,> 100,> 100,> 100,> 100,> 100,> 100,> 100,> 100,> 100,> 100,0.95,2.63,3.86,1.9,3.87,1.45,2.6,2.16,6.68,2.67
O=c1cc(-c2ccccc2)oc2cc(OC/C(=N/O)c3ccc(F)cc3)ccc12,44.2,> 50,> 50,> 50,21.1,> 50,> 50,> 50,> 50,> 50,12.9,19.6,39.6,> 50,8.75,15.9,32.2,17.2,> 50,16.3
Oc1[nH]c2ccccc2c1N=Nc1c(F)c(F)c(F)c(F)c1F,> 100,> 100,50.5,> 100,> 100,25.4,> 100,> 100,> 100,> 100,,,,,,,,,,
O=C1c2ccccc2C(=O)c2sc(Nc3ccccc3Cl)nc21,29.6,28.3,27.9,22.8,16.4,10.6,20.3,22.2,28.1,13.7,,,,,,,,,,
O=C(c1ccccc1)n1c(-c2ccccc2)cs/c1=N\S(=O)(=O)c1ccc(N2N=C3c4ccccc4CC3C2c2cccs2)cc1 (stereo unspecified),> 100,> 100,96.7,> 100,> 100,> 100,> 100,> 100,> 100,> 100,> 100,> 100,21.8,> 100,24.4,32.3,42.9,40.7,59.3,41.3
COc1ccc(C(CC(=O)c2ccccc2)C(C(=O)c2ccccc2)C(c2ccc(OC)cc2)C2C(=O)NC(=S)NC2=O)cc1 (stereo unspecified),50.7,48.5,> 100,> 100,22.7,> 100,45.6,57.2,> 100,10.6,5.88,8.67,21.7,30.3,10.5,25.6,13.5,2.44,24.9,2.16
CN1CCN(Cc2ccc3c(NNC(=O)c4ccccc4)nc4cc(F)ccc4n23)CC1,11,49.2,17.8,37.1,3.28,18.1,46.4,16,> 100,19.2,0.195,0.487,0.376,0.335,0.577,0.574,0.372,0.17,0.587,0.5
Cc1ccc(-c2nc([P+](c3ccccc3)(c3ccccc3)c3ccccc3)c(Nc3ccccc3)o2)cc1,1.8,2.08,2.57,1.26,1.48,0.739,3.27,2.18,2.41,2.09,0.515,0.708,1.18,0.32,0.406,0.227,1.05,0.815,1.16,0.728
